Counter-ions that a name gives are not always drawn.

`CCCCCCC(N)c1nc(-c2ccc(Cl)c(Cl)c2)c[nH]1` (racemic) (as salt: hydrochloride) [Example 231, (R,S)-1-[4-(3,4-dichlorophenyl)-1H-imidazol-2-yl]-1-heptanamine] had a melting point of 148 to 150 °C.

`CCCCCCC(NCc1ccccc1)c1nc(-c2ccc(C#N)cc2)c[nH]1` (racemic) [Example 217, (R,S)-4-{2-[1-(benzylamino)heptyl]-1H-imidazol-4-yl}benzonitrile] came in with a melting point of 188 to 189 °C.

`CC(C)(C)OC(=O)NC1(c2nc(-c3ccccc3)c[nH]2)CCCCC1` [Example 113, tert-butyl 1-(4-phenyl-1H-imidazol-2-yl)cyclohexylcarbamate] returned a melting point of 170 to 172 °C.

For the compound `CCCCOC(=O)NCCc1nc(-c2ccc(C(F)(F)F)cc2)c[nH]1` [Example 300, butyl 2-{4-[4-(trifluoromethyl)phenyl]-1H-imidazol-2-yl}ethylcarbamate], the melting point lay in the range of 104 to 105 °C.

On to `CCCCOC(=O)NCCc1nc(-c2ccc(CC)cc2)c[nH]1` [Example 450, butyl 2-[4-(4-ethylphenyl)-1H-imidazol-2-yl]ethylcarbamate], for which the melting point turned out to be 92.4 °C.

For the compound `Fc1ccc(-c2c[nH]c([C@@H](NCC3CC3)C3CCCCC3)n2)cc1` (as salt: hydrochloride) [Example 273, (S)-cyclohexyl-N-(cyclopropylmethyl)[4-(4-fluorophenyl)-1H-imidazol-2-yl]-methanamine], the melting point came out at 221.4 °C.

`c1ccc(-c2ccc(-c3c[nH]c(CCNC4CCCCC4)n3)cc2)cc1` [Example 249, N-[2-(4-[1,1′-biphenyl]4-yl-1H-imidazol-2-yl)ethyl]-cyclohexanamine] came in with a melting point of 207 to 210 °C.

Turning to `Brc1cccc(-c2c[nH]c(CNC3CCCCC3)n2)c1` [Example 254, N-{[4-(3-bromophenyl)-1H-imidazol-2-yl]methyl}cyclohexanamine], the melting point was 202 to 204 °C.

`Fc1cccc(-c2c[nH]c([C@@H](NC3CCCCC3)C3CCCCC3)n2)c1` (as salt: hydrochloride) [Example 314, N-{(S)-cyclohexyl[4-(3-fluorophenyl)-1H-imidazol-2-yl]methyl}cyclohexanamine] gave a melting point of 213.9 °C.

Consider `CCCCCCC(NC(=O)OC(C)(C)C)c1nc(-c2ccc(-c3ccccc3)cc2)c[nH]1` (racemic) [Example 192, (R,S)-4-(2-{1-[(tert-butoxycarbonyl)amino]heptyl}-1H-imidazol-4-yl)-1,1′-biphenyl], for which the melting point was in the range of 142 to 144 °C.

As for `COc1ccc(-c2c[nH]c([C@@H](N)C3CCCCC3)n2)cc1F` (as salt: hydrochloride) [Example 259, (S)-cyclohexyl[4-(3-fluoro-4-methoxyphenyl)-1H-imidazol-2-yl]-methanamine], the melting point is 225 to 227 °C.

The compound `Cc1[nH]c([C@@H](Cc2c[nH]c3ccccc23)NCc2ccccc2)nc1-c1ccccc1` [Example 95, (1R)-N-benzyl-2-(1H-indol-3-yl)-1-(5-methyl-4-phenyl-1H-imidazol-2-yl)ethanamine] returned a melting point of 120 to 122 °C.

Consider `NC(Cc1c[nH]c2cc(Cl)ccc12)c1nc(-c2ccccc2)c[nH]1` (racemic) (as salt: hydrochloride) [Example 122, (R,S)-2-(6-chloro-1H-indol-3-yl)-1-(4-phenyl-1H-imidazol-2-yl)ethylamine], for which the melting point lay within 210 to 212 °C.

The compound `CCCCOC(=O)NCCc1nc(-c2ccc(-c3ccccc3Br)cc2)c[nH]1` [Example 456, butyl 2-[4-(2′-bromo-1,1′-biphenyl-4-yl)-1H-imidazol-2-yl]ethylcarbamate] yielded a melting point of 109.6 °C.

`CCCCCCOC(=O)NCCc1nc(-c2cc(C(C)(C)C)c(O)c(C(C)(C)C)c2)c[nH]1` [Example 386, hexyl 2-[4-(3,5-ditert-butyl-4-hydroxyphenyl)-1H-imidazol-2-yl]ethylcarbamate] showed a melting point of 197.4 °C.

`CCCCOC(=O)NCCc1nc(-c2ccc(C(C)(C)C)cc2)c[nH]1` [Example 294, butyl 2-[4-(4-tert-butylphenyl)-1H-imidazol-2-yl]ethylcarbamate] yielded a melting point of 106 to 108 °C.

For the compound `Fc1ccc2c(CC(NCc3ccccc3)c3nc(-c4ccccc4)c[nH]3)c[nH]c2c1` (racemic) [Example 105, (R,S)-N-benzyl-2-(6-fluoro-1H-indol-3-yl)-1-(4-phenyl-1H-imidazol-2-yl)ethanamine], the melting point lay within 98 to 100 °C.

As to `c1ccc(CNC(c2ccccc2)c2nc(-c3ccccc3)c[nH]2)cc1` (racemic) [Example 133, (R,S)-N-benzyl(phenyl)(4-phenyl-1H-imidazol-2-yl)methanamine], the melting point fell in the range of 144 to 146 °C.

As to `c1ccc(-c2c[nH]c([C@@H](NCC3CC3)C3CCCCC3)n2)cc1` (as salt: hydrochloride) [Example 267, (S)-cyclohexyl-N-(cyclopropylmethyl)(4-phenyl-1H-imidazol-2-yl)methanamine], the melting point fell in the range of 151 to 152 °C.

Compound `CCN(CC)c1ccc(-c2c[nH]c([C@@H](NCC3CCCCC3)C3CCCCC3)n2)cc1` (as salt: hydrochloride) [Example 290, 4-(2-{(S)-cyclohexyl[(cyclohexylmethyl)amino]methyl}-1H-imidazol-4-yl)-N,N-diethylaniline] registered a melting point of 204 to 206 °C.

`CC(C)(C)OC(=O)NCCc1nc(-c2ccc(-c3ccccc3)cc2)c[nH]1` [Example 152, 4-(2-{2-[(tert-butoxycarbonyl)amino]ethyl}-1H-imidazol-4-yl)-1,1′-biphenyl] returned a melting point of 140 to 142 °C.

Consider `Cn1cc(-c2ccc(F)cc2)nc1[C@@H](NC1CCCCC1)C1CCCCC1` (as salt: hydrochloride) [Example 279, N-{(S)-cyclohexyl[4-(4-fluorophenyl)-1-methyl-1H-imidazol-2-yl]methyl}cyclohexanamine], for which the melting point fell in the range of 190 to 194 °C.

As to `CCCCCCC(N)c1nc(-c2ccc(N(CC)CC)cc2)c[nH]1` (racemic) (as salt: hydrochloride) [Example 218, (R,S)-4-[2-(1-aminoheptyl)-1H-imidazol-4-yl]-N,N-diethylaniline], the melting point turned out to be 192 °C.

Regarding `c1cc(C2CCCCC2)ccc1-c1c[nH]c([C@@H](NC2CCC2)C2CCCCC2)n1` (as salt: hydrochloride) [Example 275, N-{(S)-cyclohexyl[4-(4-cyclohexylphenyl)-1H-imidazol-2-yl]methyl}cyclobutanamine], the melting point was 190 to 192 °C.

In turn, `CCCCOC(=O)NCCc1nc(-c2ccc(N3CCCC3)cc2)c[nH]1` [Example 313, butyl 2-[4-(4-pyrrolidin-1-ylphenyl)-1H-imidazol-2-yl]ethylcarbamate] showed a melting point of 125 °C.

For `CCCCCC(NCc1ccccc1)c1nc(-c2ccccc2)c[nH]1` (racemic) [Example 202, (R,S)-N-benzyl-1-(4-phenyl-1H-imidazol-2-yl)-1-hexanamine], the melting point is 192 to 194 °C.

As to `Fc1ccc(-c2c[nH]c(C(CCCC(F)(F)F)NC3CCCCC3)n2)cc1` (racemic) [Example 136, (R,S)-N-{5,5,5-trifluoro-1-[4-(4-fluorophenyl)-1H-imidazol-2-yl]pentyl}cyclohexanamine], the melting point was 220 °C.

As for `CS(=O)(=O)c1ccc(-c2c[nH]c([C@@H](NC3CCCCC3)C3CCCCC3)n2)cc1` [Example 138, N-{(S)-cyclohexyl[4-(4-methylsulphonylphenyl)-1H-imidazol-2-yl]methyl}cyclohexanamine], the melting point was 152 to 154 °C.

As for `CC[C@H](N)c1nc(-c2ccc(-c3ccccc3)cc2)c[nH]1` (as salt: hydrochloride) [Example 196, (1S)-1-(4-[1,1′-biphenyl]-4-yl-1H-imidazol-2-yl)-1-propanamine], the melting point was greater than 250 °C.

For the compound `CC(C)(C)CCOC(=O)NCCc1nc(-c2ccc(N3CCCC3)cc2)c[nH]1` [Example 379, 3,3-dimethylbutyl 2-[4-(4-pyrrolidin-1-ylphenyl)-1H-imidazol-2-yl]ethylcarbamate], the melting point was 119.2 °C.

The compound `CCCCCCC(N)c1nc(-c2cc(C(C)(C)C)c(O)c(C(C)(C)C)c2)c[nH]1` (racemic) (as salt: hydrochloride) [Example 210, (R,S)-4-[2-(1-aminoheptyl)-1H-imidazol-4-yl]-2,6-di(tert-butyl)-phenol] yielded a melting point of 204 to 206 °C.

As for `CC(C)(C)c1cc(-c2c[nH]c(CCNC(=O)OCc3ccccc3)n2)cc(C(C)(C)C)c1O` [Example 389, benzyl 2-[4-(3,5-ditert-butyl-4-hydroxyphenyl)-1H-imidazol-2-yl]ethylcarbamate], the melting point was 177.5 °C.

`CC(C)(C)NC(=S)NCCc1nc(-c2ccc(-c3ccccc3)cc2)c[nH]1` [Example 172, 4-[2-(2-{[(tert-butylamino)carbothioyl]amino}ethyl)-1H-imidazol-4-yl]-1,1′-biphenyl] displayed a melting point of 98 to 99 °C.

`Cn1cc(-c2ccc(-c3ccccc3)cc2)nc1CN` (as salt: hydrochloride) [Example 55, (4-[1,1′-biphenyl]-4-yl-1-methyl-1H-imidazol-2-yl)methanamine] came in with a melting point of 279 to 280 °C.

`c1ccc(CN[C@H](Cc2c[nH]c3ccccc23)c2nc(-c3ccccc3)c(-c3ccccc3)[nH]2)cc1` [Example 94, (1R)-N-benzyl-1-(4,5-diphenyl-1H-imidazol-2-yl)-2-(1H-indol-3-yl)ethanamine] returned a melting point of 146 to 148 °C.

On to `N[C@H](c1nc(-c2ccc(F)c(F)c2)c[nH]1)C1CCCCC1` (as salt: hydrochloride) [Example 258, (S)-cyclohexyl[4-(3,4-difluorophenyl)-1H-imidazol-2-yl]-methanamine], for which the melting point fell in the range of 222 to 223 °C.

For the compound `O=C(NCCc1nc(-c2ccc(-c3ccccc3)cc2)c[nH]1)OCCCC(F)(F)F` [Example 345, 4,4,4-trifluorobutyl 2-[4-(1,1′-biphenyl-4-yl)-1H-imidazol-2-yl]ethylcarbamate], the melting point turned out to be 157.3 °C.

What is called melting point is the temperature of the solid-liquid transition.

Values taken from patent US7291641B2, “Derivatives of heterocycles with 5 members, their preparation and their use as medicaments” (Societe de Conseils de Recherches et d'Applications …, priority 1999, dated 2007).
